Assay [1] concerns B16 tumor. Nature of the assay: B16 tumor model with intraperitoneal Tasquinimod. Type of assay: in vivo, mice. Conditions: for tumor growth: 20 μg/mouse intraperitoneally. The protocol: 7-2) Tumor model: B16 cells (1.5×10^5 cells/mouse) were inoculated into mice subcutaneously, and 20 μg of Tasquinimod/mouse was injected intraperitoneally on day 2. Tumor size was measured every 2-3 days, and tumor growth curves were plotted. Tumors were isolated from mice on day 19, and the percentage of immune cells was determined by flow analysis.

In assay [2] the test system is PMN-MDSC. Nature of the assay: T cell proliferation inhibition assay of PMN-MDSC. The format is cell-based, mice. The protocol:
6-4) T cell proliferation assay: spleens of OT-1 mice were isolated, single-cell suspensions in PBS (5×10^7 cells/ml) were prepared, and CTV dye with a final concentration of […] was added to obtain a mixture. The mixture was incubated in a 37° C. water bath for 20 minutes, added with 5 times the volume of ice pre-cooled RPMI medium (RPMI-1640+10% FBS), mixed by inversion, stood at room temperature for 5 minutes, centrifuged for 5 minutes at 400 g, and then resuspended in RPMI medium (1×10^6 cells/ml). 80 μl of CTV-labeled cells was added with 40 μl of OVA peptide at a concentration of 100 ng/ml, and then supplemented with 80 μl of RPMI medium. The solution was added to the wells of a 96-well U bottom plate and incubated at 37° C. in a carbon dioxide incubator, and then antibody labeling and flow assay were carried out 48-72 hr later.
6-5) T cell proliferation inhibition assay of PMN-MDSC: spleens of B16 tumor-bearing mice were isolated, single-cell suspensions were prepared and labeled with antibodies, and PMN-MDSC cells (CD45^+/CD11b^+/Lying6G^+) were sorted by flow cytometry and resuspended in RPMI medium (1×10^6 cells/ml). 80 μl of CTV-labeled cells in […]) was added with 40 μl of OVA peptide at a concentration of 100 ng/ml, PMN-MDSC cells, and culture medium. […]

In assay [3] the test system is PMN-MDSC. Nature of the assay: PMN-MDSC in vitro cell migration assay (Transwell). Type of assay: cell-based, mice. Conditions: KO PMN-MDSCs, 2 hr. The protocol: 6-2) PMN-MDSC in vitro cell migration assay (Transwell): single-cell suspensions were prepared from isolated spleens of tumor-bearing mice and labeled with antibodies, and PMN-MDSC cells (CD45+/CD11b+/Ly6G+) were sorted. 10^5 PMN-MDSC cells were added to the upper layer of Transwell and then placed in a 37° C. incubator for 2 hr, and then the number of PMN-MDSC cells in the lower layer was analyzed by flow assay to calculate the migration ratio of the cells.
7-1) PMN-MDSC in vitro cell migration assay (Transwell): spleens of B16 tumor-bearing mice were isolated, single-cell suspensions were prepared and labeled with antibodies, and PMN-MDSC cells (CD45+/CD11b+/Lying6G+) were sorted by flow cytometry. 10^5 PMN-MDSC cells were added to the upper layer of Transwell and then placed in a 37° C. incubator, and then S100A8/A9 inhibitor (Tasquinimod) or DMSO control with a final concentration of 1 μg/ml was added, the number of PMN-MDSC cells in the lower layer was analyzed by flow-assay after 2 hr, and the percentage of cell migration was calculated.

Consider two molecules from US20250205304A1, “CD300LD INHIBITOR AND USE THEREOF IN THE PREPARATION OF TUMOR IMMUNOTHERAPY PRODUCTS” (FUDAN UNIVERSITY, priority 2021, published 2025).

As for `COc1cccc2c1c(O)c(C(=O)N(C)c1ccc(C(F)(F)F)cc1)c(=O)n2C` [Tasquinimod], the tumor growth result in assay [1] (CD300LD KO mice) is “barely inhibited tumor growth”; in assay [1] (WT mice), “inhibited tumor growth”. In addition, the “proportion of intratumoral PMN-MDSCs” value in assay [1] (tumors isolated on day 19, WT and KO mice) is “consistent with the changes of tumors”. The “inhibitory effect of PMN-MDSCs on T cell proliferation” value in assay [2] (KO PMN-MDSCs) was “little effect”; in assay [2] (WT PMN-MDSCs), “significantly reduced the inhibitory effect”.

B1: S100A8/A9 proteins: S100A8/A9 proteins added in the in vitro migration assay (protein, UniProt P05109 1-93; P06702 1-114, looked up)
Protein S100-A8: MLTELEKALNSIIDVYHKYSLIKGNFHAVYRDDLKKLLETECPQYIRKKGADVWFKELDINTDGAVNFQEFLILVIKMGVAAHKKSHEESHKE
Protein S100-A9: MTCKMSQLERNIETIINTFHQYSVKLGHPDTLNQGEFKELVRKDLQNFLKKENKNEKVIEHIMEDLDTNADKQLSFEEFIMLMARLTWASHEKMHEGDEGPGHHHKPGLGEGTP
Consider B1, for which the “in vitro migration ability of PMN-MDSC” value in assay [3] was “enhance the weakened migration ability”.
